# Results published in a melting point compilation (Tetko et al.; mined from patent text by program, amines drawn as free bases though some values may be those of a salt).
row,melting point [°C],SMILES
1,127 to 128,O=C(O)CCCCOc1ccc(OCc2ccccc2)cc1
2,148,CC(=O)OC1CSC(Oc2cccc(-c3ncccc3Cl)c2)C(OC(C)=O)C1OC(C)=O (stereo not drawn)
3,143 to 144,OC(c1ccccc1)(c1cccs1)C1CCN(CCc2ccccc2)CC1 (stereo not drawn)
4,170 to 172,CCC(=O)SCC(C)C(=O)N1C(C(=O)O)CC2CCCCC21 (stereo not drawn)
5,174,COc1c(C)cc(N2CCN(S(=O)(=O)c3ccc(C)cc3)CC2)cc1C
6,143 to 145,CC(CN(C)c1ccccc1)NCC(O)c1ccc(O)c(C(N)=O)c1 (stereo not drawn)
7,72 to 74,O=C1N(CC2CCCO2)c2ccccc2C12COc1cc(O)ccc12 (stereo not drawn)
8,162,Nc1nc(Cc2ccc(Br)cc2)cc(C2CCN(C(=O)c3ccc4c(c3)OCO4)CC2)n1
9,118 to 120,COc1cnn(C2CCCCO2)c(=O)c1Cl (stereo not drawn)
10,233 to 234,NNC(=O)c1ccnc2[nH]c(CCc3ccccc3)cc12
11,52 to 55,CCCCCCCOc1c(OC)cc([N+](=O)[O-])c2nccc(C)c12
12,174 to 184,COc1ccccc1-c1ccc(C(=O)N2Cc3ccc(C(=O)N(C)CC(O)CO)n3Cc3ccccc32)cc1C (stereo not drawn)
13,310 to 312,O=C(O)c1ccc2c(c1)C(=O)C(=Cc1cccs1)O2
14,185 to 186,CC(C)C(NC(=O)N1CCc2cc(S(=O)(=O)N3CCN(c4cccc(Cl)c4)CC3)ccc21)C(=O)O (stereo not drawn)
15,164 to 165,OCC(O)CNc1ncnc2c1ncn2C1OC(CO)C(O)C1O (stereo not drawn)
16,163 to 168,Nc1cc(=O)[nH]c(=O)n1Cc1ccncc1
17,193 to 194,Nc1ncnc2c1c(-c1ccc(Oc3ccccc3)cc1)cn2C1CCC2(CC1)OCCO2
18,242 to 243,CS(=O)(=O)c1ccc(C(=O)c2cc(-c3ccc(Cl)cc3)c(N3CCOCC3)s2)cc1
19,47 to 49,CN(Cc1ccccc1)c1nc(Cl)ncc1F
20,136,COC(=O)[C@@H]1CCCN1S(=O)(=O)c1ccc(Cl)c(COc2cccc3ccc(C)nc23)c1Cl
21,123 to 125,Clc1ccc(CN2CC=C(/C=C/c3ccccc3)CC2)cc1Cl
22,132 to 135,CCOC(=O)N(CC)c1cccc(-c2ccc3nnc(C)n3n2)c1
23,279,CCOc1ccc(C2C(C(=O)c3ccc(C(C)C)cc3)=C(O)C(=O)N2c2ccc(C)nn2)cc1 (stereo not drawn)
24,118 to 120,OCC(O)CN1CCN(c2ncccn2)CC1 (stereo not drawn)

row,melting point [°C],SMILES
1,226 to 228,Cc1cc(Cl)nn2c(-c3ccnc4[nH]ccc34)c(-c3ccc(F)cc3)nc12
2,> 300,CC1COc2c(N3Cc4cccc(F)c4C3)c(F)cc3c(=O)c(C(=O)O)cn1c23 (stereo not drawn)
3,198,O=C([C@H](O)CS(=O)(=O)c1ccc2cc(Cl)ccc2c1)N1CCN(N2CCCCC2=O)CC1
4,172 to 176,Cc1cc(C)n(C(=O)c2cn3c(C)csc3n2)n1
5,225 to 230,Cc1c(C(=O)Nc2ccc(N3CCC(N4CCOCC4)CC3)c([N+](=O)[O-])c2)cnn1-c1ccc(C(F)(F)F)cc1
6,185 to 187,O=C(c1ccccc1)c1cc2c(cc1O)C(C(=O)O)CC2 (stereo not drawn)
7,89 to 91,"CC(C)C(=O)NCCNCC(O)COc1ccccc1 (single isomer, unassigned; (-))"
8,131 to 133,Nc1nnc(N2CCN(CCOc3ccccc3)CC2)[nH]1
9,179 to 181,O=C(O)CCC12CCC(=O)N1C(=O)CC2
10,150 to 152,Nc1c(C(=O)O)cccc1-c1ccc(CCc2ccc(Cl)c(C(F)(F)F)c2)cc1
11,177 to 178,O=C(NC[C@H]1CN(c2ccc(N3CCS(=O)(=O)CC3)c(F)c2)C(=O)O1)C(F)F
12,115 to 120,CC(=O)N1CCC(Oc2c(F)c(F)c(F)c(F)c2F)(c2ccccc2)CC1
13,240,O=C(C1CCCCC1)C1CCN(Cc2cc(O)c(O)cc2[N+](=O)[O-])CC1
14,111 to 113,CCCCCCOC(=O)NCc1ccc2c(c1)C(=O)N(C1CCC(=O)NC1=O)C2=O (stereo not drawn)
15,122 to 128,C[C@@H](n1cnc2ccccc2c1=O)[C@](O)(Cn1cncn1)c1ccc(F)cc1F
16,105 to 106,O=C1C(Br)CCN1c1ncc(C(F)(F)F)s1 (stereo not drawn)
17,120,COc1ccc2ccc(N3C(=O)c4ccccc4C3OCC(=O)CC(C)C)nc2n1 (stereo not drawn)
18,164 to 166,Cc1nc(-n2cnn(Cc3ccc(F)cc3)c2=O)sc1CO
19,242 to 244,COc1ccc(-c2cc(CN3C(=O)c4ccccc4C3=O)c(=O)n(CC3CC3)n2)cc1F
20,115 to 116,Cc1ccc(OCc2ccc(OCc3nc(-c4ccccc4)oc3C)cc2)c(CC(=O)O)c1
21,95,O=C(c1ccccc1)c1cc([N+](=O)[O-])ccc1NC1CCCC1
22,166 to 168,COc1cc(CN2CCN(C(=O)c3ccc4c(c3)C(=O)c3ccccc3-4)CC2)cc(OC)c1OC
23,149 to 151,CCCc1c(OCCCOc2ccc(-c3csc(=S)[nH]3)c(OC)c2CCC)ccc2c1OC(C(=O)O)CC2 (stereo not drawn)

# Further lines, the compound ahead of its results:
row,SMILES,melting point [°C]
1,CCCc1c(C(=O)C(C)C)c2ccc(C(N)=O)cc2n1Cc1ccccc1OC,174 to 175
2,CN1C(=O)CN=C(c2ccccc2F)c2c1cc(Cl)c(N)c2Cl,234
3,Cc1ccccc1-n1c(C=Cc2ccccn2)nc2ccsc2c1=O,203
4,O=C(c1ccc(OC(F)(F)F)cc1)c1ccc(C(F)(F)F)cc1,61.5 to 62
5,CCOC(=O)CN(C(=O)C(=O)N(CC(=O)OCC)S(=O)(=O)C(F)(F)F)S(=O)(=O)C(F)(F)F,88 to 90
6,Cn1cc(C2=C(c3cc[nH]c3)C(=O)NC2=O)c2ccccc21,240 to 241
7,CCc1cc(NC(=O)c2ccc(OC)c(OC)c2)ccc1C(C)(C)CNC(C)=O,203 to 206
8,COc1ccc2c(c1)c1cc(-c3cc(F)cc(F)c3)c(=O)n(C)c1n2C,189
9,COc1ccc(-c2nnn(-c3ccc(C(F)(F)F)cc3Cl)c2CO)cc1,131 to 132
10,CCc1scc(C(=O)OC)c1NC(=O)C(F)(F)F,55 to 56
11,CC(C)/[N+]([O-])=C/c1ccc(O)cc1,217 to 218
12,Ic1ccc2c(c1)Sc1ccc(I)cc1S2,169 to 170
13,CCCn1c(=O)c2[nH]c(/C=C/c3ccc(OC)c(C)c3OC)nc2n(CCC)c1=O,255 to 256
14,CCOC(=O)c1c(Cl)c2cscc2[nH]c1=O,157
15,COc1cc2c(cc1OC)C(C(S)(C#N)c1ccccc1)=NCC2 (stereo not drawn),160 to 161
16,CCCCCn1c2ccccc2c2cc(C(=O)NN3CCCCC3)ccc21,158 to 159
17,Cc1cc(Oc2ccc([N+](=O)[O-])c(Cl)c2)n[nH]1,91 to 93
18,Nc1cc(F)c(Sc2ccc(C(F)(F)F)cc2Cl)cc1F,95.9
19,COP(=O)(OC)C(O)c1ccccc1 (stereo not drawn),85 to 86
20,O=C(Nc1cccc(Cl)c1)ONC1=Nc2ccc([N+](=O)[O-])cc2C(c2ccccc2Cl)=NC1,130 to 135
21,COc1cc(OC)c(C(=O)C=CC(=O)O)cc1OC,207 to 208
22,CC1OC(n2cc(F)c(NC(=O)c3ccccc3)nc2=O)C(OC(=O)c2ccccc2)C1OC(=O)c1ccccc1 (stereo not drawn),158 to 160
23,N#Cc1cc(-c2ccc(Cl)cc2)c[nH]c1=O,278 to 280
24,O=C(Nc1cccc(S(=O)(=O)NC2CC2)c1)c1cnn2c(C(F)F)cc(-c3ccc(Cl)c(Cl)c3)nc12,254
25,O=Cc1ccc2c(c1)ncn2-c1cccc(-c2ccccc2)c1,170 to 172
26,Oc1ccc(Nc2nc(NCc3ccco3)nc(Nc3cccc(Oc4ccccc4)c3)n2)cc1,80 to 83

row,SMILES,melting point [°C]
1,COc1ccccc1-n1c(=O)[nH]c2c(C(N)=O)nc(-c3cccc(N)c3)nc21,284 to 285
2,CCOCCOCCOCCOc1cc(OCCCCCCCCCCCCOc2ccccc2)cc(N(CC(=O)OC)CC(=O)OC)c1,< 24
3,Cn1cc(CC(=O)O)c2cc(-c3ccc(C(F)(F)F)cc3)ccc21,167 to 168
4,CCOC(=O)C1=C[C@@H](OC(CC)CC)[C@@H](NC(C)=O)[C@H](O)[C@@H]1O,154
5,CSc1ccc(COC(=O)OCc2ccc([N+](=O)[O-])cc2)cc1,84 to 86
6,CCn1cccc(C2c3cc(C(=O)OC)ccc3OC(C)(C)C2O)c1=O (stereo not drawn),120
7,Cc1c(NC(=O)CC(C)(C)C)c(C)c2c(c1-c1ccccc1)OCC2c1ccc(C(C)C)cc1 (stereo not drawn),178 to 182
8,O=Cc1ccc(OC2CCCC2)c(Oc2ccc([N+](=O)[O-])cc2Br)c1,92 to 94
9,CCCCn1c(=O)c2nn(S(=O)(=O)CCCCl)cc2n(CCCC)c1=O,67 to 68
10,C=Cn1c(Cl)cc(Cl)c(O)c1=S,114
11,CN(C)C(=O)n1nc(NC=O)c2cc(C(F)(F)F)ccc21,198 to 200
12,COc1cc(CCC2=NNC(=O)CC2)cc(OC)c1OC,116 to 117
13,CC1(C)C(=O)Nc2cc3[nH]c(C4CC4)nc3cc21,266 to 268
14,CCCCc1cc(C(=O)O)c(=O)n(CCCC)c1C,106 to 108
15,COc1ccc(CC(C)NCC(O)c2cccc(Cl)c2)cc1F (stereo not drawn),93 to 95
16,CC12CCC3C(CCC4CC(CC(=O)O)CCC43C)C1CCC2CC=O (stereo not drawn),189 to 192
17,Cc1ccc(NC(=O)c2cc(C#N)cc(C)n2)nc1,196
18,O=C(O)COc1c(-c2cc(Cl)cc(Cl)c2)cc(C(=O)NCCCCCCc2ccccc2)cc1-c1cc(Cl)cc(Cl)c1,151 to 159
19,Cn1cc(C2=CC(=O)NC2=O)c2ccccc21,229 to 231
20,CCOC(=O)[C@H](CSCCc1ccccc1)NC(=O)C(CSC(C)=O)Cc1ccccc1 (stereo partly drawn),63 to 64
21,N#Cc1ccc2c(c1)S(=O)(=O)c1ccccc1C=C2,229 to 231
22,COc1cc(Cc2cnc(NC(=O)C(C)(C)C)nc2NC(=O)C(C)(C)C)cc(OC)c1OC,153 to 154
23,CCCCCCCCCCCCCCCCCNC(=O)OC1CCCOC1COCC(O)CCCCCCO (stereo not drawn),67 to 68
24,COC(=O)C=Cc1ccc(-c2ccc(OC(F)(F)F)cc2)cc1,98 to 100
25,CN(C)C1(Cc2ccccc2)CCC(O)(c2cc3ccccc3n2C)CC1 (stereo not drawn),105 to 107
